Experimental data taken from patent publication US20230312561A1, “SOLID FORMS OF (Z)-METHYL 3-(((4-(N-METHYL-2-(4-METHYLPIPERAZIN-1-YL)ACETAMIDO)PHENYL)AMINO)(PHENYL)METHYLENE)-2-OXO-2,3-DIHYDRO-1H-PYRROLO[2,3-B]PYRIDINE-6-CARBOXYLATE AND SALTS THEREOF” (Angion Biomedica Corp., priority 2020, published 2023).

Experiments:
Assay type in all cases: physicochemical
[1] = Solution state stability of Compound 1 Hydrochloride (HPLC purity in stressing media, 25° C.)
Method: The solution state stability of Compound 1 Hydrochloride Form A (Type 1 Lot) was examined under various storage conditions within a suitable glass vessel with stirrer bead agitation at 25° C. Compound 1 Hydrochloride stock solution ([…]) in HPLC diluent (acetonitrile/water, 1:1) was prepared and 5 mL placed within suitable glass vessels with stirrer bead agitation at 25° C. An aliquot of the appropriate stressing medium (5 mL) was added to achieve a sample concentration of approximately 0.5 mg/mL. The samples were agitated and stored at 25° C. and the solutions assessed for HPLC purity for stability at particular time points.

[2] = Organic solubility (thermodynamic, 25° C., heating cycle to 75° C.); settings: for Solubility at 25° C.: 20 volumes; for XRPD after heat/cool cycle: cycle up to 75° C.
Method: Compound 1 Hydrochloride Form A (Type 1 Lot) (ca. 50 mg) was equilibrated in a range of organic solvents in order to collect thermodynamic values for solubility. Solvents were charged in 500 μL aliquots (ca. 10 volumes) to the Compound 1 Hydrochloride Form A (Type 1 Lot) dispensed as a powder (ca. 50 mg) in 16 mm diameter glass reaction tubes until dissolution was achieved or up to 1000 μL (ca. 20 volumes) total volume was charged, with observations noted during dosing. The samples were equilibrated at 25° C. for a minimum of 24 hours with stirrer bead agitation.
Samples which remained as suspensions and contained enough solids were split into two equal portions, with one portion isolated by filtration and the resulting damp solids profiled by XRPD. These solids were then dried in vacuo at 45° C. for ca. 16 hours before further profiling. The filtrates from the solvent suspensions were isolated, diluted by 1 in 50 using acetonitrile/water (1:1), and the Compound 1 content determined by HPLC against a single point standard.
The remaining portion of each suspension was subjected to a heating cycle up to 75° C. with equilibration at 10° C. temperature intervals for a minimum of 30 minutes, before allowing to cool naturally to 40° C., followed by equilibration for ca. 16 hours before continuing to cool naturally (approximately 10° C./hr) to 25° C.

[3] = Dynamic Vapor Sorption (DVS) analysis with XRPD after equilibration
Method: Sorption isotherms were obtained using a Hiden Isochema moisture sorption analyzer (model IGAsorp), controlled by IGAsorp Systems Software V6.50.48. The sample was maintained at a constant temperature (25° C.) by the instrument controls. The humidity was controlled by mixing streams of dry and wet nitrogen, with a total flow of 250 mL·min^−1. The instrument was verified for relative humidity content by measuring three calibrated Rotronic salt solutions (10%, 50%, 88%). The weight change of the sample was monitored as a function of humidity by a microbalance (accuracy+/−0.005 mg). A defined amount of sample was placed in a tared mesh stainless steel basket under ambient conditions. A full experimental cycle typically consisted of three scans (sorption, desorption and sorption) at a constant temperature (25° C.) and 10% RH intervals over a 0-90% range (60 minutes for each humidity level). […]
This water content decreased as relative humidity decreased in the first desorption cycle.
The solid absorbed 3.39% water over the humidity range. […] The profile was similar to that of Form C in Example 7.2.

[4] = Solid state stability under humid conditions (40° C./75% RH and 25° C./60% RH, two weeks)
Method: Stability of Compound 1 Hydrochloride Forms A, B, C, and D was evaluated under humid conditions. Samples of Forms A, B, C, and D were stored at 40° C./75% RH and 25° C./60% RH for a period of two weeks (loosely capped glass vials with approx. 200 mg solid). Solids were then re-analyzed using methods described herein. A summary of the results is provided in Table 12 (after storage at 25° C./60% RH) and Table 13 (after storage at 40° C./75% RH).

Compound: COC(=O)c1ccc2c(c1)NC(=O)/C2=C(\Nc1ccc(N(C)C(=O)CN2CCN(C)CC2)cc1)c1ccccc1.Cl [Compound 1 Hydrochloride Form A (Type 1 Lot)]
- HPLC (%) ([1]; 1 M HCl, 1 h): 99.53%
- HPLC (%) ([1]; 1 M HCl, 6 h): 99.29%
- HPLC (%) ([1]; 1 M HCl, 24 h): 96.56%
- HPLC (%) ([1]; 1 M HCl, 3 d): 95.63%
- HPLC (%) ([1]; 1 M HCl, 7 d): 90.58%
- HPLC (%) ([1]; 1 M NaOH, 1 h): 0.49%
- HPLC (%) ([1]; 1 M NaOH, 6 h): 0.65%
- HPLC (%) ([1]; 5% H2O2, 1 h): 80.39%
- HPLC (%) ([1]; 5% H2O2, 6 h): 46.74%
- HPLC (%) ([1]; 5% H2O2, 24 h): 0.42%
- HPLC (%) ([1]; Control (water), 1 h): 99.68%
- HPLC (%) ([1]; Control (water), 6 h): 99.69%
- HPLC (%) ([1]; Control (water), 24 h): 99.54%
- HPLC (%) ([1]; Control (water), 3 d): 99.42%
- HPLC (%) ([1]; Control (water), 7 d): 99.50%
- Observation after heat/cool cycle [2]: Suspension
- XRPD after equilibration at 25° C. ([2]; 2-Butanone): Form C
- Solubility at 25° C. ([2]; 2-Butanone): 4.9 µg/mL
- XRPD after heat/cool cycle ([2]; 2-Butanone): Form C
- XRPD after equilibration at 25° C. ([2]; 2-Propanol): Form C
- Solubility at 25° C. ([2]; 2-Propanol): 60 µg/mL
- XRPD after heat/cool cycle ([2]; 2-Propanol): Form C
- XRPD after equilibration at 25° C. ([2]; Acetone): Form C
- Solubility at 25° C. ([2]; Acetone): 14.4 µg/mL
- XRPD after heat/cool cycle ([2]; Acetone): Form C
- XRPD after equilibration at 25° C. ([2]; Acetonitrile): Form C
- Solubility at 25° C. ([2]; Acetonitrile): 170 µg/mL
- XRPD after heat/cool cycle ([2]; Acetonitrile): Form C
- Solubility at 25° C. ([2]; Anisole): 8.1 µg/mL
- XRPD after heat/cool cycle ([2]; Anisole): Unassigned form
- XRPD after equilibration at 25° C. ([2]; DMSO): Form A
- Solubility at 25° C. ([2]; DMSO): 10820 µg/mL
- XRPD after heat/cool cycle ([2]; DMSO): Form A
- Solubility at 25° C. ([2]; Dichloromethane): 1750 µg/mL
- XRPD after heat/cool cycle ([2]; Dichloromethane): Form C
- XRPD after equilibration at 25° C. ([2]; Diethyl ether): Form C
- Solubility at 25° C. ([2]; Diethyl ether): 3 µg/mL
- XRPD after heat/cool cycle ([2]; Diethyl ether): Form C
- XRPD after equilibration at 25° C. ([2]; Ethanol): Form C
- Solubility at 25° C. ([2]; Ethanol): 880 µg/mL
- XRPD after heat/cool cycle ([2]; Ethanol): Form C
- XRPD after equilibration at 25° C. ([2]; Ethyl acetate): Form C
- Solubility at 25° C. ([2]; Ethyl acetate): 1.8 µg/mL
- XRPD after heat/cool cycle ([2]; Ethyl acetate): Form C
- XRPD after equilibration at 25° C. ([2]; Heptane): Form A
- Solubility at 25° C. ([2]; Heptane): 2.2 µg/mL
- XRPD after heat/cool cycle ([2]; Heptane): Form A
- XRPD after equilibration at 25° C. ([2]; Isopropyl acetate): Form C
- Solubility at 25° C. ([2]; Isopropyl acetate): 2.8 µg/mL
- XRPD after heat/cool cycle ([2]; Isopropyl acetate): Form C
- XRPD after equilibration at 25° C. ([2]; MIBK): Form C
- Solubility at 25° C. ([2]; MIBK): 1.8 µg/mL
- XRPD after heat/cool cycle ([2]; MIBK): Form C
- XRPD after equilibration at 25° C. ([2]; Methanol): Form B
- Solubility at 25° C. ([2]; Methanol): 4480 µg/mL
- XRPD after equilibration at 25° C. ([2]; TBME): Form A
- Solubility at 25° C. ([2]; TBME): 2.3 µg/mL
- XRPD after equilibration at 25° C. ([2]; Tetrahydrofuran): Form C
- Solubility at 25° C. ([2]; Tetrahydrofuran): 12.5 µg/mL
- XRPD after heat/cool cycle ([2]; Tetrahydrofuran): Form C
- XRPD after equilibration at 25° C. ([2]; Toluene): Form A
- Solubility at 25° C. ([2]; Toluene): 0.6 µg/mL
- dissolution in organic solvents on heating cycle ([2]; any temperature (25° C.-75° C.), any solvent tested): Full or partial dissolution was not observed
- XRPD after equilibration at 25° C. ([2]; n-Butyl acetate): Form C
- Solubility at 25° C. ([2]; n-Butyl acetate): 0.7 µg/mL
- XRPD after heat/cool cycle ([2]; n-Butyl acetate): Form C
- XRPD across the humidity range over the course of DVS analysis ([3]; 0-90% RH): Form A remained
- water absorbed over the humidity range (DVS) ([3]; 25° C., 0-90% RH): 13.4 wt %
- reversibility of water uptake (DVS) ([3]; as relative humidity decreased): reversible
- water uptake (DVS) ([3]; high humidity, comparison stated in Example 7.3): above 13%
- water uptake up to 30% RH (DVS) ([3]; up to 30% RH): 8.5 wt %
- TGA After Storage: further loss above/post 200° C. ([4]; 25° C./60% RH): 100° C., further loss of 0.96%
- TGA After Storage: total water content ([4]; 25° C./60% RH): of 10.9%
- XRPD After Storage ([4]; 25° C./60% RH): Form A
- TGA After Storage: further loss above/post 200° C. ([4]; 40° C./75% RH): 100° C., further loss of 1.05%
- TGA After Storage: total water content ([4]; 40° C./75% RH): of 11.18%
- TGA After Storage: weight reduction up to 100° C. ([4]; 40° C./75% RH): Weight reduction of 10.13% up to
- XRPD After Storage ([4]; 40° C./75% RH): Form A
